In US6380167B1, “Methods for anti-tumor therapy” (priority 1999, dated 2002):
“Also recorded” adds a separate entry of the source. Like-named read-outs stand apart in the source and are kept apart here.

Columns and labels:
[1] = test system: cells isolated from sarcoma patients; experiment: Alamer Blue cellular respiration assay on cells isolated from sarcoma patients; format: cell-based; details: Homo sapiens
Excerpt: (§1) Excess tissue specimens obtained from a variety of organs and tissues such as colon, lung, kidney, stomach, and buttocks were obtained freshly at the time of surgery and samples were sent for pathological testing. For diagnosis and grading of tissue samples (ie: prior to processing), hematoxylin and eosin stained tissue sections were examined by a pathologist. If the diagnosis and grading of the tissue concurred with the determination made by the surgical pathologist that provided the tissue, then the tissue was used in the screen. If there was no agreement, then two additional pathologists served as referees. If no consensus was reached, then the tissue was discarded. […]
(§2) After tissue processing, the relative purity of the resulting cell suspension was determined by cytological examination after pap staining. […]
(§3) Cell preparations that passed histological and cytological examination for diagnosis, grading, and cell purity were thawed at 37° C. and resuspended in tissue culture medium designed to maintain the cells during the incubation period. The live and dead cells were counted and the cells were diluted in culture medium to 4.0×10^4 live cells/ml for tumor cells and 1.32×10^5 live cells/ml for normal cells. […]
(§4) The kinetics of cellular re-dox reactions were subsequently measured at various times, for example at 3 hours, 3 days, and 5 days post-dye addition. […]

[2] = test system: cells derived from ovarian tumor tissue; experiment: Alamer Blue cellular respiration assay on cells derived from ovarian tumor tissue; format: cell-based; details: Homo sapiens
Excerpt: as §1, §2, §3, §4

[3] = toxic at concentrations above; cited from earlier work
[4] = in vivo; cited from earlier work
patient tumor cells = experiment: Comparison of cardiac glycosides in the anti-tumor assays; format: cell-based, human; details: cardiac glycosides tested
Protocol: Alamer Blue (Accumed International, Westlake Ohio) was then added to the cells at 1/10 the volume of the well, and the cells were further incubated at 37° C. for various times. Alamer Blue dye measures cellular re-dox reactions (ie: cellular respiration) whereby a spectral shift occurs upon reduction of the dye. (Excitation 530 nm; emission 590 nm)
The kinetics of cellular re-dox reactions were subsequently measured at various times, for example at 3 hours, 3 days, and 5 days post-dye addition.

[5] = range over samples, read-out: IC50 (range)

| SMILES | IC50 ([1]; mean, read-out: IC50 (mean)) | IC50 [1, 5] | IC50 ([2]; mean, read-out: IC50 (mean)) | IC50 [2, 5] | toxic concentration [3] | bound to plasma proteins [4] | activity in the assays compared with digitoxin (patient tumor cells) |
| --- | --- | --- | --- | --- | --- | --- | --- |
| CC1OC(OC2C(O)CC(O[C@H]3CC[C@]4(C)C5CC[C@]6(C)[C@@H](C7=CC(=O)OC7)CC[C@]6(O)[C@@H]5CC[C@@H]4C3)O[C@@H]2C)C[C@H](O)[C@@H]1OC1CC(O)C(O)[C@@H](C)O1 (some centres unmarked) [digitoxin] | 25 nM | 13 to 48 nM | 47 nM | 31 to 126 nM | above 35 ng/ml; also recorded: approximately 46 nM | greater than 95% | – |
| C[C@H]1O[C@@H](O[C@H]2[C@@H](O)C[C@H](O[C@H]3[C@@H](O)C[C@H](O[C@H]4CC[C@@]5(C)[C@H](CC[C@@H]6[C@@H]5C[C@@H](O)[C@]5(C)[C@@H](C7=CC(=O)OC7)CC[C@]65O)C4)O[C@@H]3C)O[C@@H]2C)C[C@H](O)[C@@H]1O [digoxin] | – | – | – | – | – | – | Digitoxin appeared more active in the assays then digoxin |
| C[C@@H]1O[C@@H](O[C@H]2C[C@@H](O)[C@]3(CO)[C@H]4[C@H](O)C[C@]5(C)[C@@H](C6=CC(=O)OC6)CC[C@]5(O)[C@@H]4CC[C@]3(O)C2)[C@H](O)[C@H](O)[C@H]1O [oubain] | – | – | – | – | – | – | equally active |
